US8101605B2, “SHIP1 modulators and methods related thereto” (Aquinox Pharmaceuticals Inc., priority 2009, dated 2012)

biological target: T1, His-hSHIP1 enzyme (Homo sapiens, UniProt Q92835); experiment: His-hSHIP1 phosphatase activity assay (IP4 substrate, Biomol Green); type: biochemical; conditions: percentage increase relative to background; concentrations ≦300 μM
T1 sequence (Q92835 1-1189): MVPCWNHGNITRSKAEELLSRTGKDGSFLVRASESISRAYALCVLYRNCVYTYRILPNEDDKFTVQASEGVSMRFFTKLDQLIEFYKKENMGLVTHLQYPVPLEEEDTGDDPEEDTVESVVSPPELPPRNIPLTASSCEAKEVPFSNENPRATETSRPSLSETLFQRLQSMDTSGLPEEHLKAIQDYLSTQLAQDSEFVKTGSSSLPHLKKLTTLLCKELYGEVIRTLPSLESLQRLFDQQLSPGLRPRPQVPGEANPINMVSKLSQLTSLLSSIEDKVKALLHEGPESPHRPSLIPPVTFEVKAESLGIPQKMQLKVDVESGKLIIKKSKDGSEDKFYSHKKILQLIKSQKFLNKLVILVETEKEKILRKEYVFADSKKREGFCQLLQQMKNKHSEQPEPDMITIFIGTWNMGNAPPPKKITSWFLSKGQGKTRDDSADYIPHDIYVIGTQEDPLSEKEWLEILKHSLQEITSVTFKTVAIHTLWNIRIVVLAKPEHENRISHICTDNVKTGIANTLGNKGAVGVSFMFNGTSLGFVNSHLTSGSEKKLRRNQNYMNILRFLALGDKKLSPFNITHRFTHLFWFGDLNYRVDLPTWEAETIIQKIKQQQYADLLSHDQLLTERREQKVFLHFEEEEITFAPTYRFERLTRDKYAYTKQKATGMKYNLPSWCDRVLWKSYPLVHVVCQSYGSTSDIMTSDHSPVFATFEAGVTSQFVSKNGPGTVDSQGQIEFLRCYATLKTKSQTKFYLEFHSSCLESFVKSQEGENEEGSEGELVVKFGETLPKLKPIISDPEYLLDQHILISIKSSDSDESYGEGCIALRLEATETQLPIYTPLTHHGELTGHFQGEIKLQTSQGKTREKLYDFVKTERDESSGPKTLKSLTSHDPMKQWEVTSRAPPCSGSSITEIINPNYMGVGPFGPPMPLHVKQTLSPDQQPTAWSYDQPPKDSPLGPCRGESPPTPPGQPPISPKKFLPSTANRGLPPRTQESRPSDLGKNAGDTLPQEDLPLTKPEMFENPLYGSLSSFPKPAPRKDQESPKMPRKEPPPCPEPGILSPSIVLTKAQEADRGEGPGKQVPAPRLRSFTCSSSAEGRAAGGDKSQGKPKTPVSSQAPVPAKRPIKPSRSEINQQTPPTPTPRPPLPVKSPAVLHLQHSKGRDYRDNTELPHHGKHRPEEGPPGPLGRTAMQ
Procedure: Test compounds were dissolved in 95% ethanol to form stock solutions. Before screening, the stock solutions were diluted with Phosphatase Assay Buffer (20 mM Tris-HCL, 10 mM MgCl2 pH 7.5, 0.02% Tween 20) to form working assay solutions that contained 10% ethanol. The assay was carried out on 96-well microtiter plates using a modified procedure of that reported by Ong et al., Blood 110, 1942-1949, 2007 and Yang et al., Org Lett 7, 1073-1076, 2005, both of which references are incorporated herein by reference in their entirety.
Each reaction contained 5 μL of His-hSHIP1 enzyme (15-20 ng), 10 μL of the substrate, 1,3,4,5-inositol tetrakisphosphate (IP4; 50 μM final), 5 μL of Phosphatase Assay Buffer, and 5 μL of test compound at various concentrations in 10% ethanol (0-300 μM final). Control blanks were also prepared by replacing His-hSHIP1 enzyme, IP4, or test compounds with Phosphatase Assay Buffer. After adding the reaction components in a 96-well microtiter plate on ice, the reaction was mixed by briefly shaking the plate vigorously. The reaction was then incubated at 37° C. for 15 min with gentle shaking followed by addition of 100 μL of Biomol Green Reagent (BIOMOL, PA, USA) to terminate the reaction. The free phosphate released from IP4 by His-hSHIP1 bound to the Biomol Green Reagent, turning the solution green in colour. After incubating the mixture for 20 min at room temperature for colour development, the absorbance was read with a SpectraMax Plus 96-well plate reader (Molecular Devices, Sunnyvale, Calif., USA) at a wavelength of 650 nm.
Percent (%) activation in Table 2 is expressed as a percentage increase relative to background. Scoring is expressed as follows: + (<50%); ++ (≧50% but <65%); +++ (≧65%).

Scoring: percent (%) activation of His-hSHIP1 enzyme, + (<50%):
CC1(C)CCC[C@]2(C)[C@H]3CS(=O)(=O)c4cc(C(=O)O)cc(C(=O)O)c4[C@]3(C)CC[C@@H]12 [compound 85, (1R,10R,11S,16S)-1,11,15,15-tetramethyl-8,8-dioxo-8λ^6-thiatetracyclo[8.8.0.0^2,7.0^11,16]octadeca-2,4,6-triene-3,5-dicarboxylic acid]
CNC(=O)c1cc(C(=O)NC)c2c(c1)S(=O)(=O)C[C@@H]1[C@@]3(C)CCCC(C)(C)[C@@H]3CC[C@@]21C [compound 86, (1R,10R,11S,16S)-1,3-N,5-N,11,15,15-hexamethyl-8,8-dioxo-8λ^6-thiatetracyclo[8.8.0.0^2,7.0^11,16]octadeca-2,4,6-triene-3,5-dicarboxamide]
CC1(C)CCC[C@]2(C)[C@H]3CS(=O)(=O)c4cc(O)cc(C(=O)N5CCOCC5)c4[C@]3(C)CC[C@@H]12 [compound 88, (1R,10R,11S,16S)-5-hydroxy-1,11,15,15-tetramethyl-3-[(morpholin-4-yl)carbonyl]-8λ^6-thiatetracyclo-[8.8.0.0^2,7.0^11,16]octadeca-2,4,6-triene-8,8-dione]
COC(=O)CNC(=O)c1cc(O)cc2c1[C@]1(C)CC[C@H]3C(C)(C)CCC[C@]3(C)[C@H]1CS2(=O)=O [compound 90, methyl 2-{[(1R,10R,11S,16S)-5-hydroxy-1,11,15,15-tetramethyl-8,8-dioxo-8λ^6-thiatetracyclo[8.8.0.0^2,7.0^11,16]octadeca-2,4,6-trien-3-yl]formamido}acetate]
CC1(C)CCC[C@]2(C)[C@H]3CS(=O)(=O)c4cc(O)cc(C(=O)NCC(=O)O)c4[C@]3(C)CC[C@@H]12 [compound 91, 2-{[(1R,10R,11S,16S)-5-hydroxy-1,11,15,15-tetramethyl-8,8-dioxo-8λ^6-thiatetracyclo[8.8.0.0^2,7.0^11,16]octadeca-2,4,6-trien-3-yl]formamido}acetic acid]
CC1(C)CCC[C@]2(C)[C@H]3CS(=O)(=O)c4cc(C(=O)NCC(=O)O)cc(O)c4[C@]3(C)CC[C@@H]12 [compound 93, 2-{[(1R,10R,11S,16S)-3-hydroxy-1,11,15,15-tetramethyl-8,8-dioxo-8λ^6-thiatetracyclo[8.8.0.0^2,7.0^11,16]octadeca-2,4,6-trien-5-yl]formamido}acetic acid]
CN1CCN(C(=O)c2cc(O)cc3c2[C@]2(C)CC[C@H]4C(C)(C)CCC[C@]4(C)[C@H]2CS3(=O)=O)CC1 [compound 94, (1R,10R,11S,16S)-5-hydroxy-1,11,15,15-tetramethyl-3-[(4-methylpiperazin-1-yl)carbonyl]-8λ^6-thiatetracyclo[8.8.0.0^2,7.0^11,16]octadeca-2,4,6-triene-8,8-dione]
CONC(=O)c1cc(O)cc2c1[C@]1(C)CC[C@H]3C(C)(C)CCC[C@]3(C)[C@H]1CS2(=O)=O [compound 95, (1R,10R,11S,16S)-5-hydroxy-N-methoxy-1,11,15,15-tetramethyl-8,8-dioxo-8λ^6-thiatetracyclo[8.8.0.0^2,7.0^11,16]octadeca-2,4,6-triene-3-carboxamide]
CONC(=O)c1cc(O)c2c(c1)S(=O)(=O)C[C@@H]1[C@@]3(C)CCCC(C)(C)[C@@H]3CC[C@@]21C [compound 96, (1R,10R,11S,16S)-3-hydroxy-N-methoxy-1,11,15,15-tetramethyl-8,8-dioxo-8λ^6-thiatetracyclo[8.8.0.0^2,7.0^11,16]octadeca-2,4,6-triene-5-carboxamide]
CC1(C)CCC[C@]2(C)[C@H]3CS(=O)(=O)c4cc(C(=O)N5CCC(C(=O)O)CC5)cc(O)c4[C@]3(C)CC[C@@H]12 [compound 98, 1-{[(1R,10R,11S,16S)-3-hydroxy-1,11,15,15-tetramethyl-8,8-dioxo-8λ^6-thiatetracyclo[8.8.0.0^2,7.0^11,16]octadeca-2,4,6-trien-5-yl]carbonyl}piperidine-4-carboxylic acid]
CC1(C)CCC[C@]2(C)[C@H]3CS(=O)(=O)c4cc(O)cc(C(=O)N5CCNCC5)c4[C@]3(C)CC[C@@H]12 [compound 100, (1R,10R,11S,16S)-5-hydroxy-1,11,15,15-tetramethyl-3-[(piperazin-1-yl)carbonyl]-8λ^6-thiatetracyclo[8.8.0.0^2,7.0^11,16]octadeca-2,4,6-triene-8,8-dione]
COc1cc(OCC(=O)O)cc2c1[C@]1(C)CC[C@H]3C(C)(C)CCC[C@]3(C)[C@H]1CS2(=O)=O [compound 104, 2-{[(1R,10R,11S,16S)-3-methoxy-1,11,15,15-tetramethyl-8,8-dioxo-8^6-thiatetracyclo[8.8.0.0^2,7.0^11,16]octadeca-2,4,6-trien-5-yl]oxy}acetic acid]
CC1(C)CCC[C@]2(C)[C@H]3CS(=O)(=O)c4cc(OCC(=O)O)cc(O)c4[C@]3(C)CC[C@@H]12 [compound 105, 2-{[(1R,10R,11S,16S)-3-hydroxy-1,11,15,15-tetramethyl-8,8-dioxo-8^6-thiatetracyclo[8.8.0.0^2,7.0^11,16]octadeca-2,4,6-trien-5-yl]oxy}acetic acid]
COc1cc(O)c(CN2CCOCC2)c2c1[C@]1(C)CC[C@H]3C(C)(C)CCC[C@]3(C)[C@H]1CS2(=O)=O [compound 106, (1R,10R,11S,16S)-5-hydroxy-3-methoxy-1,11,15,15-tetramethyl-6-(morpholin-4-ylmethyl)-8^6-thiatetracyclo[8.8.0.0^2,7.0^11,16]octadeca-2,4,6-triene-8,8-dione]
